Data from publication PMC10056485 (International Journal of Molecular Sciences, 2023).
Several values for one entry are separate records, joined by “and”; a condition that tells them apart may be missing. Equal values may be shown once. Read-outs that look alike come from different tables or passages of the source. Marks after values point to notes of the source that are not given here.

Experiments:
[1] = cited from earlier work
[2] = test system: triple-negative 4T1 cells; details: combination of RT with cabozantinib, in vitro; cited from earlier work
[3] = Sprague-Dawley, rat, in vivo
Procedure: (§1) The HPLC system consisted of a chromatographic pump (LC-20AT), an online injector (SIL-20C) equipped with a 10 μL sample loop to inject the sample and an ultraviolet detector (SPD-M20A). […] Biochanin A was used as the internal standard (IS), and the retention time of biochanin A was 3.8 min (Figure 4).
(§2) A freely moving rat model was designed for the current study [19]. Briefly, the whole liver for the EBRT technique or central area 1.5 × 1.5 cm in size for the SBRT technique of rats was localized by computed tomography. For the whole liver field, the cranial margin was set 5 mm from the top of the diaphragm, and the caudal margin was set 5 mm lower than the liver margin. The whole liver was targeted for irradiation. […] The data were collected from six rats per group.
(§3) A radiation dose of 2 Gy was considered the daily conventional dose or the off-target dose around the target that received an ablation RT dose. Nine Gy was used to simulate the SBRT dose. […] Rats were initially anesthetized with pentobarbital (50 mg/kg, i.p.) and remained anesthetized throughout the experimental period. After the surgery, the rats were placed in an experimental cage and allowed to recover for 1 day. Cabozatinib was dissolved in triply deionized water and administered (6 mg/kg, p.o.) to the rats (n = 6 per group).
(§4) Blood samples were collected via polyethylene tubing (PE-50) implanted into the jugular vein of each rat in a heparin-rinsed vial. An aliquot of 100–120 µL of blood was collected at time intervals of 0, 5, 15, 30, 45, 60, 90, 120, 150, 180, 210 and 240 min following drug administration. At each time point, 200 μL of blood was drawn into heparin-rinsed Eppendorf tubes and then centrifuged at 13,000 rpm for 10 min at 4 °C to obtain plasma. Plasma was stored at −20 °C until analysis. Each collected blood sample was transferred to a heparinized microcentrifuge tube and centrifuged at 13,000 rpm for 10 min. The resulting plasma (50 μL) was then mixed with 150 μL of internal standard solution (10 μg/mL). The denatured protein precipitate was separated by vortexing for 20 s and centrifuged at 13,000 rpm for 10 min at 4 °C.
(§5) Pharmacokinetic parameters, including the area under the concentration versus time curve (AUC), clearance (CL), elimination half-life (𝑡1/2), volume of distribution at steady state (Vss) and mean residence time (MRT), were calculated using the pharmacokinetics calculation software WinNonlin Standard Edition, Version 1.1 (Scientific Consulting, Apex, NC, USA) by a compartmental method. Relative bioavailability (RB %) = (AUCirradiated/AUCcontrol) × 100.

[4] = Organ distribution (biodistribution) of cabozantinib in rats with or without radiotherapy; assay type: in vivo, Sprague–Dawley rats; details: for Concentration of cabozantinib in brain / Concentration of cabozantinib in heart / Concentration of cabozantinib in kidney / Concentration of cabozantinib in liver / Concentration of cabozantinib in lung / Concentration of cabozantinib in spleen: rat, 6 mg/kg p.o. 3 days, six hours after administration
Procedure: The whole liver was targeted for irradiation. […] The data were collected from six rats per group.
Nine Gy was used to simulate the SBRT dose.
The brain, liver, heart, spleen, lung and kidney were collected and weighed. These collected samples were stored at −20 °C until analysis.
The thawed organ samples were homogenized in 50% aqueous acetonitrile (the ratio of sample weight to volume was 1:5), and the homogenate was centrifuged at 13,000× g for 10 min at 4 °C. The supernatant was collected, placed in brown Eppendorf tubes, and stored at −20 °C until analysis. Briefly, each organ sample (50 μL) was combined with 150 μL of IS solution (diethylstilbestrol) for protein precipitation. Finally, 20 μL of filtrate was subjected to HPLC analysis.

[5] = cited from earlier work; remark: listed apart in the source
[6] = metastatic renal cell carcinoma patients, cited from earlier work
[7] = test system: plasma protein; details: cited from earlier work
[8] = parameters: method as in PMID 30649748; details: cited from earlier work
[9] = cited from earlier work; remark: listed apart in the source
[10] = test system: tumor growth; details: combination of cabozantinib and irradiation, in vivo; cited from earlier work
[11] = Pharmacokinetics of cabozantinib in plasma of freely moving rats with or without liver radiotherapy; details: for AUC(0-t): AUC0-T; for AUC(0-t) / Cmax / MRT / Tmax / Vss: rat plasma, 6 mg/kg p.o. q.d. 3 days
Procedure: as §1, §2, §3, §4, §5

[12] = parameters: method as in PMID 32533042; details: cited from earlier work; for Complete recanalization rate: p = 0.014
[13] = rats, RT9Gy×3 f'x sequential compared to RT9Gy×3 f'x concurrent regimen, p = 0.02
[14] = phase III study of HCC, cabozantinib alone
[15] = Sprague-Dawley, rat, plasma, po, 6 mg/kg, RT 2Gy x 3 f'x concurrent
[16] = Sprague-Dawley, rat, plasma, po, 6 mg/kg, RT 2Gy x 3 f'x sequential
[17] = Sprague-Dawley, rat, plasma, po, 6 mg/kg, RT 9Gy x 3 f'x concurrent
[18] = Sprague-Dawley, rat, plasma, po, 6 mg/kg, RT 9Gy x 3 f'x sequential
[19] = Sprague-Dawley, rat, plasma, po, 6 mg/kg, cabozantinib only (no RT)

In the case of CNC(=O)c1cc(Oc2ccc(NC(=O)Nc3ccc(Cl)c(C(F)(F)F)c3)c(F)c2)ccn1 [regorafenib], the “Increase of AUC of regorafenib” value ([1]; sequential RT9Gyx3f'x group) is listed as 1.3 fold.

In the case of COc1cc2nccc(Oc3ccc(NC(=O)C4(C(=O)Nc5ccc(F)cc5)CC4)cc3)c2cc1OC [cabozantinib], the “Effect on clonogenic survival” value [2] is given as “a synergistic effect was found”, the “Decrease of Tmax” value [3] is given as 72.8% and the “Increase of CL” value [3] is given as 249.0%. For the same compound, the “Increase of Tmax” value [3] was 404.1%, the “Concentration of cabozantinib in brain” value ([4]; RT 2Gy concurrent) was 0.00 ± 0.00 µg/mL or µg/g and the “Concentration of cabozantinib in heart” value ([4]; RT 2Gy concurrent) was 0.52 ± 0.39 µg/mL or µg/g. The “Concentration of cabozantinib in kidney” value ([4]; RT 2Gy concurrent) was 0.17 ± 0.06 µg/mL or µg/g, the “Concentration of cabozantinib in liver” value ([4]; RT 2Gy concurrent) was 0.39 ± 0.16 µg/mL or µg/g and the “Concentration of cabozantinib in lung” value ([4]; RT 2Gy concurrent) was 0.40 ± 0.34 µg/mL or µg/g. For the same compound, the “Concentration of cabozantinib in spleen” value ([4]; RT 2Gy concurrent) was 0.16 ± 0.03 µg/mL or µg/g, the “Concentration of cabozantinib in brain” value ([4]; RT 2Gy sequential) was 0.00 ± 0.00 µg/mL or µg/g and the “Concentration of cabozantinib in heart” value ([4]; RT 2Gy sequential) was 0.26 ± 0.11 µg/mL or µg/g. For the same compound, the “Concentration of cabozantinib in kidney” value ([4]; RT 2Gy sequential) was 0.29 ± 0.09 ^a µg/mL or µg/g, the “Concentration of cabozantinib in liver” value ([4]; RT 2Gy sequential) was 0.47 ± 0.18 µg/mL or µg/g and the “Concentration of cabozantinib in lung” value ([4]; RT 2Gy sequential) was 0.35 ± 0.19 µg/mL or µg/g. For the same compound, the “Concentration of cabozantinib in spleen” value ([4]; RT 2Gy sequential) was 0.16 ± 0.05 µg/mL or µg/g, the “Concentration of cabozantinib in brain” value ([4]; RT 9Gy concurrent) was 0.00 ± 0.00 µg/mL or µg/g and the “Concentration of cabozantinib in heart” value ([4]; RT 9Gy concurrent) was 0.16 ± 0.05 µg/mL or µg/g. For the same compound, the “Concentration of cabozantinib in kidney” value ([4]; RT 9Gy concurrent) was 0.16 ± 0.07 µg/mL or µg/g, the “Concentration of cabozantinib in liver” value ([4]; RT 9Gy concurrent) was 0.28 ± 0.14 µg/mL or µg/g and the “Concentration of cabozantinib in lung” value ([4]; RT 9Gy concurrent) was 0.16 ± 0.10 µg/mL or µg/g. For the same compound, the “Concentration of cabozantinib in spleen” value ([4]; RT 9Gy concurrent) was 0.20 ± 0.07 µg/mL or µg/g, the “Concentration of cabozantinib in brain” value ([4]; RT 9Gy sequential) was 0.00 ± 0.00 µg/mL or µg/g and the “Concentration of cabozantinib in heart” value ([4]; RT 9Gy sequential) was 0.29 ± 0.09 *^b µg/mL or µg/g. For the same compound, the “Concentration of cabozantinib in kidney” value ([4]; RT 9Gy sequential) was 0.30 ± 0.14 ^b µg/mL or µg/g, the “Concentration of cabozantinib in liver” value ([4]; RT 9Gy sequential) was 0.59 ± 0.24 ^b µg/mL or µg/g and the “Concentration of cabozantinib in lung” value ([4]; RT 9Gy sequential) was 0.36 ± 0.08 *^b µg/mL or µg/g. For the same compound, the “Concentration of cabozantinib in spleen” value ([4]; RT 9Gy sequential) was 0.16 ± 0.04 µg/mL or µg/g, the “Concentration of cabozantinib in brain” value ([4]; cabozantinib only (no RT)) was 0.00 ± 0.00 µg/mL or µg/g and the “Concentration of cabozantinib in heart” value ([4]; cabozantinib only (no RT)) was 0.14 ± 0.06 µg/mL or µg/g. The “Concentration of cabozantinib in kidney” value ([4]; cabozantinib only (no RT)) was 0.22 ± 0.06 µg/mL or µg/g, the “Concentration of cabozantinib in liver” value ([4]; cabozantinib only (no RT)) was 0.44 ± 0.19 µg/mL or µg/g and the “Concentration of cabozantinib in lung” value ([4]; cabozantinib only (no RT)) was 0.25 ± 0.05 µg/mL or µg/g. For the same compound, the “Concentration of cabozantinib in spleen” value ([4]; cabozantinib only (no RT)) was 0.12 ± 0.09 µg/mL or µg/g, the “Increase of biodistribution in the heart” value ([4]; rats, RT2Gy×3 f'x concurrent regimen, printed as compared to the concurrent regimen, p = 0.04) was 271.4% and 271% and the “Increase of biodistribution in the lung” value ([4]; rats, RT9Gy×3 f'x sequential compared to RT9Gy×3 f'x concurrent regimen, p = 0.004) was 125%. For the same compound, the “Increase of biodistribution in the heart” value [4, 13] was 81.3%, the “Increase of biodistribution in the liver” value [4, 13] was 110.5% and the “Increase of biodistribution in the kidneys” value ([4]; rats, RT9Gy×3 f'x sequential compared to RT9Gy×3 f'x concurrent regimen, p = 0.048) was 87.5%. For the same compound, the “Increase of biodistribution in the heart” value ([4]; rats, RT9Gy×3 f'x sequential regimen compared with control group, p = 0.01) was 107.1% and 107%, the “Increase of biodistribution in the lung” value ([4]; rats, RT9Gy×3 f'x sequential regimen compared with control group, p = 0.02) was 44% and the “Detection of cabozantinib in the brain” value ([4]; rats, any of the groups) was “No cabozantinib was detected”. For the same compound, the “Increase of kidney biodistribution” value ([4]; rats, sequential RT2Gy×3 f'x compared to control group, p = 0.02) was 31.8% and 32%, the Half-life [5] was “approximately 110 h” and the “Increase of AUC of cabozantinib” value ([5]; liver function impaired) was 63–81%. For the same compound, the “Time of second absorption peak after administration” value ([5]; plasma concentration–time profiles) was “approximately 24 h”, the “Increase of AUC of cabozantinib” value ([5]; renal function impaired) was 7–30% and the “Grade 3–4 AE rate” value ([6]; cabozantinib concurrent with SBRT) was 3.6%. The “Grade 3–4 AE rate” value ([6]; cabozantinib concurrent with conventional RT) was 6.3%, the Plasma protein binding [7] was no less than 99.7% and the Osteonecrosis of jaw [8] was 1%. For the same compound, the “Risk of grade 3 or above hemorrhagic events” value [8] was 2.1–3%, the “Serious gastrointestinal perforation or fistula” value [8] was 1.2–3% and the “Rate of grade 3 or 4 adverse events” value ([9]; cabozantinib alone for HCC treatment) was 10–17%. The “Serious adverse events rate” value ([9]; cabozantinib for HCC treatment) was 12%, the “Grade 3 or 4 diarrhea” value [9, 14] was 10% and the “Grade 3 or 4 fatigue” value [9, 14] was 10%. For the same compound, the “Grade 3 or 4 hypertension” value [9, 14] was 16%, the “Grade 3 or 4 increased aspartate aminotransferase level” value [9, 14] was 12% and the “Grade 3 or 4 palmar–plantar erythrodysesthesia” value [9, 14] was 17%. For the same compound, the Tumor growth control [10] was “not increased”, the concentration at 60 min ([11]; Sprague-Dawley, rat, plasma, po, 6 mg/kg) was 800 ng/mL and the AUC(0-t) [11, 15] was 5100 ng·h/mL. It also gave an AUC(0-t) [11, 16] of 3900 ng·h/mL, an AUC(0-t) [11, 17] of 4290 ng·h/mL and an AUC(0-t) [11, 18] of 4180 ng·h/mL. It also gave an AUC(0-t) [11, 19] of 4440 ng·h/mL, a Cmax [11, 15] of 1600 ± 470 ng/mL and a Cmax [11, 16] of 1360 ± 540 ng/mL. For the same compound, the Cmax [11, 17] was 1370 ± 470 ng/mL, the Cmax [11, 18] was 1350 ± 490 ng/mL and the Cmax [11, 19] was 1440 ± 440 ng/mL. For the same compound, the MRT [11, 15] was 13.7 h, the MRT [11, 16] was 9.05 h and the MRT [11, 17] was 11.2 h. For the same compound, the MRT [11, 18] was 38.5 h, the MRT [11, 19] was 26.7 h and the Tmax [11, 15] was 0.611 h. It also gave a Tmax [11, 16] of 3.08 h, a Tmax [11, 17] of 0.639 h and a Tmax [11, 18] of 2.92 h. For the same compound, the Tmax [11, 19] was 2.25 h, the Vss ([11]; RT 2Gy x 3 f'x concurrent) was 3.942 ± 1.303 L/kg and the Vss ([11]; RT 2Gy x 3 f'x sequential) was 5.668 ± 2.22 L/kg. The Vss ([11]; RT 9Gy x 3 f'x concurrent) was 4.204 ± 1.272 L/kg, the Vss ([11]; RT 9Gy x 3 f'x sequential) was 3.153 ± 0.482 L/kg and the Vss ([11]; cabozantinib only (no RT)) was 4.831 ± 1.307 L/kg.

For COc1cc2nccc(Oc3ccc(NC(=O)NC4CC4)c(Cl)c3)c2cc1C(N)=O [lenvatinib], the “Increase of AUC of lenvatinib” value ([1]; sequential RT9Gyx3f'x group) is given as 2 fold.

For CNC(=O)c1cc(Oc2ccc(NC(=O)Nc3ccc(Cl)c(C(F)(F)F)c3)cc2)ccn1 [sorafenib], the “Increase of AUC of sorafenib” value ([1]; concurrent RT9Gy groups) is listed as 4 fold, the “Increase of AUC of sorafenib” value ([1]; sequential RT9Gy group) is listed as 1.6 fold and the “Complete recanalization rate, SBRT relative to conventional RT” value ([12]; SBRT with sorafenib versus conventional RT) is listed as 3 fold. For the same compound, the Complete recanalization rate ([12]; SBRT with sorafenib) was 28% and the Complete recanalization rate ([12]; conventional RT with sorafenib) was 8%.
